Data as given in patent US8993565B2, “(6-oxo-1,6-dihydropyrimidin-2-yl)amide derivatives, preparation thereof and pharmaceutical use thereof as AKT(PKB) phosphorylation inhibitors” (Sanofi, priority 2009, dated 2015).
pIC50: −log10 of the molar value.

System: AKT protein phosphorylated on serine 473 (P-AKT-S473)
Test: Study of pAKT expression in PC3 human prostate carcinoma cells measured by the MSD Multi-spot Biomarker Detection technique (Test B)
Type: cell-based
Settings: PC-3, inhibition of AKT phosphorylation (P-AKT-S473), MSD sandwich immunoassay, 1 to 2 h incubation, absolute IC50, mean of 2 experiments
Method: The inhibitory activity of the molecules on AKT phosphorylation is measured either by western blotting using the technique described below, or by the MSD Multi-spot Biomarker detection technique from Meso Scale Discovery also described below.
Study of pAKT Expression in PC3 Human Prostate Carcinoma Cells Measured by the MSD Multi-Spot Biomarker Detection Technique from Meso Scale Discovery (Test B):
The primary antibody specific for P-AKT-S473 (Kit #K151CAD) is coated on to an electrode in each well of the 96-well plates of the MSD, kit: after the addition of a protein lysate to each well, the signal is visualised by adding a secondary detection antibody labelled with an electrochemoluminescent compound. The procedure followed is that described in the kit.
On day 2, the cells are incubated in the presence or absence of the test products for 1 to 2 h at 37° C. in the presence of 5% of CO2. The molecules, diluted in dimethyl sulphoxide (DMSO Sigma #D2650), are added from a 20-times concentrated stock solution, the final percentage of DMSO being 0.1%. The molecules are tested either at a single concentration of less than or equal to 10 μM, or at increasing concentrations in a range that can extend from less than 1 nM to 10 μM.
After this incubation, the cells are lysed for the preparation of the proteins. […] At this stage, the plates containing the lysates can be stored at −20° C. or at −80° C.
The wells of the 96-well plates of the MSD kit are saturated for 1 h at ambient temperature with the blocking solution of the MSD kit. Four washes are carried out with 150 μl of Tris Wash Buffer of the MSD kit. The lysates previously prepared are transferred into the 96-well multi-spot plates of the MSD kit and incubated for 1 h at ambient temperature, with shaking. Four washes are carried out with 150 μl of Tris Wash Buffer of the MSD kit. 25 μl of the MSD sulfo-tag detection antibody solution are added to the wells and incubated for 1 h at ambient temperature, with shaking. Four washes are carried out with 150 μl of Tris Wash Buffer of the MSD kit. 150 μl of Read Buffer of the MSD kit are added to the wells and the plates are read immediately on the S12400 instrument from Meso Scale Discovery.
The instrument measures a signal for each well. Wells without cells and containing the lysis buffer serve to determine the background noise that will be subtracted from all the measurements (min). The wells containing cells in the absence of product and in the presence of 0.1% DMSO are considered to be the 100% signal (max). The percentage inhibition is calculated for each concentration of test product according to the following formula: (1-((test-min)(max-min)))×100.
2 independent experiments make it possible to calculate the mean of the IC50 values.

| Structure (SMILES) | pIC50 |
| --- | --- |
| CN(C)c1cccc(NC(=O)Cc2nc(N3CCOCC3)cc(=O)[nH]2)c1 [Example 4, N-[3-(dimethylamino)phenyl]-2-[4-(morpholin-4-yl)-6-oxo-1,6-dihydropyrimidin-2-yl]acetamide] | 6.84 |
| O=C(Cc1nc(N2CCOCC2)cc(=O)[nH]1)Nc1ccc(F)cc1F [Example 5, N-(2,4-difluorophenyl)-2-[4-(morpholin-4-yl)-6-oxo-1,6-dihydropyrimidin-2-yl]acetamide] | 7.29 |
| N#Cc1cc(NC(=O)Cc2nc(N3CCOCC3)cc(=O)[nH]2)ccc1F [Example 24, N-(3-cyano-4-fluorophenyl)-2-[4-(morpholin-4-yl)-6-oxo-1,6-dihydropyrimidin-2-yl]acetamide] | 6.61 |
| O=C(Cc1nc(N2CCOCC2)cc(=O)[nH]1)Nc1ccc(F)cn1 [Example 27, N-(5-fluoropyridin-2-yl)-2-[4-(morpholin-4-yl)-6-oxo-1,6-dihydropyrimidin-2-yl]acetamide] | 7.15 |
| O=C(Cc1nc(N2CCOCC2)cc(=O)[nH]1)Nc1cccnc1 [Example 30, 2-[4-(morpholin-4-yl)-6-oxo-1,6-dihydropyrimidin-2-yl]-N-(pyridin-3-yl)acetamide] | 5.99 |
| Cc1cc(F)ccc1NC(=O)Cc1nc(N2CCOCC2)cc(=O)[nH]1 [Example 31, N-(4-fluoro-2-methylphenyl)-2-[4-(morpholin-4-yl)-6-oxo-1,6-dihydropyrimidin-2-yl]acetamide] | 7.24 |
| O=C(Cc1nc(N2CCOCC2)cc(=O)[nH]1)Nc1cccc(OC2CCCC2)c1 [Example 49, N-[3-(cyclopentyloxy)phenyl]-2-[4-(morpholin-4-yl)-6-oxo-1,6-dihydropyrimidin-2-yl]acetamide] | 6.84 |
| O=C(Cc1nc(N2CCOCC2)cc(=O)[nH]1)Nc1ccc(F)c(F)c1F [Example 53, 2-[4-(morpholin-4-yl)-6-oxo-1,6-dihydropyrimidin-2-yl]-N-(2,3,4-trifluorophenyl)acetamide] | 7.18 |
| O=C(Cc1nc(N2CCOCC2)cc(=O)[nH]1)Nc1cc(F)c(F)cc1F [Example 60, 2-[4-(morpholin-4-yl)-6-oxo-1,6-dihydropyrimidin-2-yl]-N-(2,4,5-trifluorophenyl)acetamide] | 6.54 |
| O=C(Cc1nc(N2CCOCC2)cc(=O)[nH]1)Nc1cc(Cl)c(F)c(Cl)c1 [Example 61, N-(3,5-dichloro-4-fluorophenyl)-2-[4-(morpholin-4-yl)-6-oxo-1,6-dihydropyrimidin-2-yl]acetamide] | 7.11 |
| O=C(Cc1nc(N2CCOCC2)cc(=O)[nH]1)Nc1ccc(F)c(C(=O)O)c1 [Example 64, 2-fluoro-5-(([4-(morpholin-4-yl)-6-oxo-1,6-dihydropyrimidin-2-yl]acetyl)amino)benzoic acid] | 5.00 |
| O=C(Cc1nc(N2CCOCC2)cc(=O)[nH]1)Nc1ccc(F)cc1Br [Example 66, N-(2-bromo-4-fluorophenyl)-2-[4-(morpholin-4-yl)-6-oxo-1,6-dihydropyrimidin-2-yl]acetamide] | 6.88 |
| O=C(Cc1nc(N2CCOCC2)cc(=O)[nH]1)Nc1ccc(F)c(C(F)F)c1 [Example 76] | 7.11 |
| O=C(Nc1ccc(F)cc1)C(F)(F)c1nc(N2CCOCC2)cc(=O)[nH]1 [Example 77, 2,2-difluoro-N-(4-fluorophenyl)-2-[4-(morpholin-4-yl)-6-oxo-1,6-dihydropyrimidin-2-yl]acetamide] | 6.16 |
| Cn1c(CC(=O)Nc2ccc(F)c(F)c2)nc(N2CCOCC2)cc1=O [Example 78, N-(3,4-difluorophenyl)-2-[1-methyl-4-(morpholin-4-yl)-6-oxo-1,6-dihydropyrimidin-2-yl]acetamide] | 6.89 |
| Cn1c(CC(=O)Nc2ccc(F)c(Br)c2)nc(N2CCOCC2)cc1=O [Example 80, N-(3-bromo-4-fluorophenyl)-2-[1-methyl-4-(morpholin-4-yl)-6-oxo-1,6-dihydropyrimidin-2-yl]acetamide] | 7.03 |
| Cn1c(CC(=O)Nc2ccc(F)c(CO)c2)nc(N2CCOCC2)cc1=O [Example 81, N-[4-fluoro-3-(hydroxymethyl)phenyl]-2-[1-methyl-4-(morpholin-4-yl)-6-oxo-1,6-dihydropyrimidin-2-yl]acetamide] | 5.71 |
| COc1cc(NC(=O)Cc2nc(N3CCOCC3)cc(=O)n2C)ccc1F [Example 83, N-(4-fluoro-3-methoxyphenyl)-2-[1-methyl-4-(morpholin-4-yl)-6-oxo-1,6-dihydropyrimidin-2-yl]acetamide] | 6.94 |
| Cn1c(CC(=O)Nc2ccccc2)nc(N2CCOCC2)cc1=O [Example 85, 2-[1-methyl-4-(morpholin-4-yl)-6-oxo-1,6-dihydropyrimidin-2-yl]-N-phenylacetamide] | 6.47 |
| O=C(Cc1nc(N2CCOCC2)cc(=O)[nH]1)Nc1cccc(F)c1O [Example 87, N-(3-fluoro-2-hydroxyphenyl)-2-[4-(morpholin-4-yl)-6-oxo-1,6-dihydropyrimidin-2-yl]acetamide] | 7.12 |
| O=C(Cc1nc(N2CCOCC2)cc(=O)[nH]1)N1CCc2c(O)cccc21 [Example 91, 2-[2-(4-hydroxy-2,3-dihydro-1H-indol-1-yl)-2-oxoethyl]-6-(morpholin-4-yl)pyrimidin-4(3H)-one] | 7.15 |
| O=C(Cc1nc(N2CCOCC2)cc(=O)[nH]1)N1CCc2c(F)cc(F)cc21 [Example 92, 2-[2-(4,6-difluoro-2,3-dihydro-1H-indol-1-yl)-2-oxoethyl]-6-(morpholin-4-yl)pyrimidin-4(3H)-one] | 7.24 |
| Cn1c(CC(=O)Nc2ccc(F)c(I)c2)nc(N2CCOCC2)cc1=O [Example 93, N-(3-iodo-4-fluorophenyl)-2-[1-methyl-4-(morpholin-4-yl)-6-oxo-1,6-dihydropyrimidin-2-yl]acetamide] | 7.20 |

Stronger by pIC50, values ahead:

| pIC50 | Structure (SMILES) |
| --- | --- |
| 7.38 | CC(C)(C)c1cccc(NC(=O)Cc2nc(N3CCOCC3)cc(=O)[nH]2)c1 [Example 19, N-[3-(2-methylpropan-2-yl)phenyl]-2-[4-(morpholin-4-yl)-6-oxo-1,6-dihydropyrimidin-2-yl]acetamide] |
| 7.46 | O=C(Cc1nc(N2CCOCC2)cc(=O)[nH]1)N1CCc2ccc(F)cc21 [Example 95, 2-[2-(6-fluoro-2,3-dihydro-′1H-indol-1-yl)-2-oxoethyl]-6-(morpholin-4-yl)pyrimidin-4(3H)-one] |
| 7.64 | O=C(Cc1nc(N2CCOCC2)cc(=O)[nH]1)Nc1ccsc1 [Example 7, 2-[4-(morpholin-4-yl)-6-oxo-1,6-dihydropyrimidin-2-yl]-N-(thiophen-3-yl)acetamide] |
| 7.70 | Cn1c(CC(=O)N2CCc3ccccc32)nc(N2CCOCC2)cc1=O [Example 79, 2-[2-(2,3-dihydro-1 H-indol-1-yl)-2-oxoethyl]-3-methyl-6-(morpholin-4-yl)pyrimidin-4(3 H)-one] |
| 7.77 | O=C(Cc1nc(N2CCOCC2)cc(=O)[nH]1)Nc1cccc2occc12 [Example 84, N-(1-benzofur-4-yl)-2-[4-(morpholin-4-yl)-6-oxo-1,6-dihydropyrimidin-2-yl]acetamide] |
| 7.85 | C#Cc1cc(NC(=O)Cc2nc(N3CCOCC3)cc(=O)[nH]2)ccc1F [Example 90, N-(3-ethynyl-4-fluorophenyl)-2-[4-(morpholin-4-yl)-6-oxo-1,6-dihydropyrimidin-2-yl]acetamide] |
| 7.96 | O=C(Cc1nc(N2CCOCC2)cc(=O)[nH]1)N1CCc2c1ccc(F)c2F [Example 94, 2-[2-(4,5-difluoro-2,3-dihydro-1H-indol-1-yl)-2-oxoethyl]-6-(morpholin-4-yl)pyrimidin-4(3H)-one] |
| 8.00 | O=C(Cc1nc(N2CCOCC2)cc(=O)[nH]1)Nc1ccc(F)c(I)c1 [Example 74, N-(4-fluoro-3-iodophenyl)-2-[4-(morpholin-4-yl)-6-oxo-1,6-dihydropyrimidin-2-yl]acetamide] |
| 8.22 | CC1Cc2ccccc2N1C(=O)Cc1nc(N2CCOCC2)cc(=O)[nH]1 (stereo not drawn) [Example 96, 2-[2-(2-methyl-2,3-dihydro-1H-indol-1-yl)-2-oxoethyl]-6-(morpholin-4-yl)pyrimidin-4(3H)-one] |
| 8.52 | O=C(Cc1nc(N2CCOCC2)cc(=O)[nH]1)N1CCc2c(Cl)cccc21 [Example 89, 2-[2-(4-chloro-2,3-dihydro-1 H-indol-1-yl)-2-oxoethyl]-6-(morpholin-4-yl)pyrimidin-4(3 H)-one] |
